Data on 12 compounds can be found in PMC11062922 (Nature Chemical Biology, 2023).

Structures are written as SMILES.

The subject of assay [1] is endogenous kinases and other proteins enriched by Kinobeads from mixed lysates of K-562, COLO-205, MV-4-11, SK-N-BE(2) and OVCAR-8. In words: Kinobeads competition binding profiling, two doses (100 nM and 1 µM).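 On all read-outs here: inhibitor preincubated 45 min at 4 °C in cell lysate, then bead pulldown. Bound protein quantified by label-free mass spectrometry relative to DMSO vehicle control.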 Details: species or system human. The following applies: for detection of the designated target by Kinobeads: previous chemical probes; for selectivity in the Kinobeads assay (CATDSmost potent): in words.

Assay [2] concerns the target T1, ABL2 (Homo sapiens, UniProt P42684).
T1 construct: endogenous in cells
Briefly: Kinobeads two-dose competition binding: ABL2. The following applies: sheet "Kinobeads Drugmatrix - all"; unit inferred; read-out: Kinobeads Drugmatrix - all: apparent Kd, ABL2.

In assay [3] the target is T2, ABL1 (Homo sapiens, UniProt P00519). Briefly: Kinobeads two-dose competition binding: ABL1. The settings on record: sheet "Kinobeads Drugmatrix - all"; unit inferred; read-out: Kinobeads Drugmatrix - all: apparent Kd, ABL1.
T2 sequence (P00519 28-1130 limits assumed): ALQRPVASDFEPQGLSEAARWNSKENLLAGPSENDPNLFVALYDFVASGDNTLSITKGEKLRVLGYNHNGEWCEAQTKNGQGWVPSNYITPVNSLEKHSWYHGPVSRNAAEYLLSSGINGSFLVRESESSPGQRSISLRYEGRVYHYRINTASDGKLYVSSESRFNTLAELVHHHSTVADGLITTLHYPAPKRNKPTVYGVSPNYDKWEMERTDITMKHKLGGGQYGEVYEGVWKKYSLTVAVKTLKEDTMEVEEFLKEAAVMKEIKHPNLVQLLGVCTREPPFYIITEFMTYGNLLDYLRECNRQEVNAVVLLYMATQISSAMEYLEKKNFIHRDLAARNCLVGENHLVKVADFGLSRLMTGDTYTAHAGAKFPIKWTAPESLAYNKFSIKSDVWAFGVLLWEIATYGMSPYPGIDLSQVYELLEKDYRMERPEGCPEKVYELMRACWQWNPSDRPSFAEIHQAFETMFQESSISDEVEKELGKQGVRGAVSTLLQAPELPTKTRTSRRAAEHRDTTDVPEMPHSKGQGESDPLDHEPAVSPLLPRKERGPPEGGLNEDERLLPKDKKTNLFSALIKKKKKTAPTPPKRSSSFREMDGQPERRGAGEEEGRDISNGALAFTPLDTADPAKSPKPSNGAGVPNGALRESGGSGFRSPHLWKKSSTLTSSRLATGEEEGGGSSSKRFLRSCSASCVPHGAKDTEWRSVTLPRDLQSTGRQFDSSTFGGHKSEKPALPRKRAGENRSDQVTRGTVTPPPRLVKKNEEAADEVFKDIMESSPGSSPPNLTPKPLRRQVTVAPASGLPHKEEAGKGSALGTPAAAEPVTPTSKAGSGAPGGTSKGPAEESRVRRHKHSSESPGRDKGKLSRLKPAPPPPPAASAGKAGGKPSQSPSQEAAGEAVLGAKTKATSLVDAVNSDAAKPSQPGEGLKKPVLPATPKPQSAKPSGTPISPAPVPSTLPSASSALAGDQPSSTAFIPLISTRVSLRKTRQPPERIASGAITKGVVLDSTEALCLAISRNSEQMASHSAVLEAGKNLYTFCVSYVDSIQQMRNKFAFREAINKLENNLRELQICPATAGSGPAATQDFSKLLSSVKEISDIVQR
Assay [4] concerns the target T1, ABL2. In words: Kinobeads two-dose competition binding: ABL2. The settings on record: sheet CATDS matrix 2; Gene Name ABL2.
For a further assay, the target named is T3, ACAD11 (Homo sapiens, UniProt Q709F0).
T3 construct: endogenous in cells
T3 sequence (Q709F0 1-780): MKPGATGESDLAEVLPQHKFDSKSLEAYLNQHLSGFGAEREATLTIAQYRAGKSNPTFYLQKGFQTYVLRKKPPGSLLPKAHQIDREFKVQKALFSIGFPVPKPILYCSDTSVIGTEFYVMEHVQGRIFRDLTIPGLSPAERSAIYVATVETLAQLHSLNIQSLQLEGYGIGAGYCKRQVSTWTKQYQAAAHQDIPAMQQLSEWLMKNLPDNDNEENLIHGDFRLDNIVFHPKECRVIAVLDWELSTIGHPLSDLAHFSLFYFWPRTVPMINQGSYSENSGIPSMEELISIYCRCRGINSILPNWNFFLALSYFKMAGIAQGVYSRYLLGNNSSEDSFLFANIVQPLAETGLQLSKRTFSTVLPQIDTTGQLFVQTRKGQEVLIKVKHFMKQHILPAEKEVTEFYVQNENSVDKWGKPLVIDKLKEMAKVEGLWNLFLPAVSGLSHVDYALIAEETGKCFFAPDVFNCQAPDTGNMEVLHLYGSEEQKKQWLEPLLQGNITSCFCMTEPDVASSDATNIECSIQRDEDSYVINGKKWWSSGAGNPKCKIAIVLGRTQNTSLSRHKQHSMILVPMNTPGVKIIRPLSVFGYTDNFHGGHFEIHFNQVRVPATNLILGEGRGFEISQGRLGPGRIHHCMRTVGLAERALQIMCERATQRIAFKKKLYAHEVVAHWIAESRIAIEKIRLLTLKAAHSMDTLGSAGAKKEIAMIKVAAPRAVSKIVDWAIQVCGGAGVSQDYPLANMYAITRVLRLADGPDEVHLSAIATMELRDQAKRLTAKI
In words: Kinobeads two-dose competition binding: ACAD11. The following applies: sheet CATDS matrix 2; Gene Name ACAD11.

In the next assay the target is T4, ACOX1 (Homo sapiens, UniProt Q15067).
T4 construct: endogenous in cells
T4 sequence (Q15067 1-660): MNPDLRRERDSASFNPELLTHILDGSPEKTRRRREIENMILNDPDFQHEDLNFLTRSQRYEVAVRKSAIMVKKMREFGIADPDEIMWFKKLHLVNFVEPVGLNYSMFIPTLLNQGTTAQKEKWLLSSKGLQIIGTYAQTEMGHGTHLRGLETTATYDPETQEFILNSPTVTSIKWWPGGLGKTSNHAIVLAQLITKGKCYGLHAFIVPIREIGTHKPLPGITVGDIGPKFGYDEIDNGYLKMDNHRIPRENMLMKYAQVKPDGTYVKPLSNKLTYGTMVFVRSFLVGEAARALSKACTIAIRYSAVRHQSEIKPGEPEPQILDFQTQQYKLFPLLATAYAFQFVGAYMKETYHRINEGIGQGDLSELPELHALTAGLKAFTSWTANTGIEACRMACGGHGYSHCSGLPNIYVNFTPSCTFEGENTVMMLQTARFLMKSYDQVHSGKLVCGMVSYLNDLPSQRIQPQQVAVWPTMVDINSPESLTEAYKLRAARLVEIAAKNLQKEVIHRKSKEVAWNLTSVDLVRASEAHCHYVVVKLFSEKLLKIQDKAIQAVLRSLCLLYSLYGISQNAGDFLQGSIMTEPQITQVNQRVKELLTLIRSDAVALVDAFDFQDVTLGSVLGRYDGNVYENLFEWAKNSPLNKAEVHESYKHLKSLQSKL
Briefly: Kinobeads two-dose competition binding: ACOX1.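 Further: competition of compounds with immobilized broad-spectrum kinase inhibitor beads in cell lysate at 100 and 1,000 nM, 45 min at 4 °C, bead-bound protein quantified by label-free MS versus DMSO.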 The settings on record: sheet CATDS matrix 2; Gene Name ACOX1.

Assay [5] concerns the target T2, ABL1. Briefly: Kinobeads two-dose competition binding: ABL1. The settings on record: sheet CATDS matrix 2; Gene Name ABL1.
The target in another assay is T5, AAK1 (Homo sapiens, UniProt Q2M2I8).
T5 construct: to maximize the representation of endogenous proteins; endogenous in cells
T5 sequence (Q2M2I8 whole entry): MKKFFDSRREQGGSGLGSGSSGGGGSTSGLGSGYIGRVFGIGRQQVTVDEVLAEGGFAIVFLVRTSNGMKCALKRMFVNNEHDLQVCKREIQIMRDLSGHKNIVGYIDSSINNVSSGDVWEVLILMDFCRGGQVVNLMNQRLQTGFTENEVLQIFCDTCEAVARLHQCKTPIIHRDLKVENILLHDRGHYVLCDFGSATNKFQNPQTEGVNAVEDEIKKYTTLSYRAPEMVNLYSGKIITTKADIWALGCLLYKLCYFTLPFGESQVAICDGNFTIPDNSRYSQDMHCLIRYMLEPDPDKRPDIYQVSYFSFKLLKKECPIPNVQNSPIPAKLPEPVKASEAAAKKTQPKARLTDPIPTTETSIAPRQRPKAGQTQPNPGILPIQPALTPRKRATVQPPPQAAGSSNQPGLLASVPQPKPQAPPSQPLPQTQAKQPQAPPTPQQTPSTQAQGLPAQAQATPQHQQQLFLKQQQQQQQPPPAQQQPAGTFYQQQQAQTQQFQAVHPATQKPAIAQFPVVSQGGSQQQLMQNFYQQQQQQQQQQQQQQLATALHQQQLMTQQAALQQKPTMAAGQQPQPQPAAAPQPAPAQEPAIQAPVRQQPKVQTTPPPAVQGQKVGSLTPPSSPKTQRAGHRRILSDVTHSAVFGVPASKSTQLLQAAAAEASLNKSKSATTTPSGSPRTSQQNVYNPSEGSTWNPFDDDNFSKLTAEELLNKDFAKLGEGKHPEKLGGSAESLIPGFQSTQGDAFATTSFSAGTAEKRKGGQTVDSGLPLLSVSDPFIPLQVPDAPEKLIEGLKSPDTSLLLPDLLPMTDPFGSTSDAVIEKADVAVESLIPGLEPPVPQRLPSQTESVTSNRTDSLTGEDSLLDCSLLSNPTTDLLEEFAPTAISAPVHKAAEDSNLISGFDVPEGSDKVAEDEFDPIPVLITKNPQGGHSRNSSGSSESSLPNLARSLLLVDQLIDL
Briefly: Kinobeads two-dose competition binding: AAK1.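 On all read-outs here: kinobeads competition pulldown from cell lysate, compound preincubated 45 min at 4 °C, bead-bound protein measured by label-free mass spectrometry against DMSO vehicle control.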 The settings on record: for CATDS: sheet CATDS matrix 2, Gene Name AAK1.

T1 sequence (P42684 whole entry): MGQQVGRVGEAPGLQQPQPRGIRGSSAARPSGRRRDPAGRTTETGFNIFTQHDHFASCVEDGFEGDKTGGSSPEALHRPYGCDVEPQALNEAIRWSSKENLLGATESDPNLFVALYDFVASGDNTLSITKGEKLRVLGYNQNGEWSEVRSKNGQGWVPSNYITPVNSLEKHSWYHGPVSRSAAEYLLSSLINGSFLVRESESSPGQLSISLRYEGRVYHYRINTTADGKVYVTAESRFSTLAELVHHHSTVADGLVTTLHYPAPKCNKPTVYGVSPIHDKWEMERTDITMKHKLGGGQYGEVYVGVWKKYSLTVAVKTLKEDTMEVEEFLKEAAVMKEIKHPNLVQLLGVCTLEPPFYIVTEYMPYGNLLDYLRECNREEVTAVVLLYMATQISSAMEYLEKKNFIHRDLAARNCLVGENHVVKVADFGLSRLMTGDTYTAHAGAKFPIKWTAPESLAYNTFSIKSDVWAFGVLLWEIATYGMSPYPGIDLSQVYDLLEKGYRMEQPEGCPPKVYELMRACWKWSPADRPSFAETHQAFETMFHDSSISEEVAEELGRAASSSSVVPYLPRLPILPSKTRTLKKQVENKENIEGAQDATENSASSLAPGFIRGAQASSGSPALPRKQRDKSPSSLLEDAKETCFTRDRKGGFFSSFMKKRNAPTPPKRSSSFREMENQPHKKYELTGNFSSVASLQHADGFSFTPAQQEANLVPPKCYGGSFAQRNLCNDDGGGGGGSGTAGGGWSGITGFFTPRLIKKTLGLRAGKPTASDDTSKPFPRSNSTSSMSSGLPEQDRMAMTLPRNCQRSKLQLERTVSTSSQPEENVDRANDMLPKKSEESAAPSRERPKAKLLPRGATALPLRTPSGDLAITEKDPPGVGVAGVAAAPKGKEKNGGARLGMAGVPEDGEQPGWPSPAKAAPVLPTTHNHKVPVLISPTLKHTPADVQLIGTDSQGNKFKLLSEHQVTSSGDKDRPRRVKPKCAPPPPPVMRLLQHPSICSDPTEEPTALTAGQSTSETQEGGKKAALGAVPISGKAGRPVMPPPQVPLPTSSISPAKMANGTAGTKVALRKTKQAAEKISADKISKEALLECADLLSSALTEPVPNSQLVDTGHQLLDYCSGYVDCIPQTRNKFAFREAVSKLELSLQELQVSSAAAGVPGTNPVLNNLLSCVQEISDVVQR

Consider `O=C(NCCO)c1cccc(-c2cc(Nc3ccc(OC(F)(F)F)cc3)ncn2)c1` [GNF-5, reference compound], for which, in assay [1], the “detection of the designated target by Kinobeads” value (from here on “detection”) is “failed to reveal their targets”.

As to `CC(C)(C)S(=O)(=O)c1ccc2nccc(Nc3n[nH]c4ccc(F)cc34)c2c1` [GSK583, reference compound], the “chemical probe criteria (Kdapp < 1 µM and CATDSmost potent > 0.5)” value in assay [1] (Kinobeads data) is recorded as “fulfilled our criteria”.

Regarding `COc1ccc(Nc2ncc(C#N)c(Nc3ccccc3C(N)=O)n2)cc1N1CCN(C)CC1` [GSK1558669A], the potency estimated from few doses on ABL2 [2] is 334 nM; on ABL1 [3], 112 nM; at AAK1 (sheet "Kinobeads Drugmatrix - all", unit inferred, same values below 1000 recur in sheet "nanomolar", read-out: Kinobeads Drugmatrix - all: apparent Kd, AAK1), 164 nM. For the same compound, the CATDS at ABL2 [4] worked out at 0.008409; at ACAD11, 0; on ACOX1 it was 0; at ABL1 [5], 0.01209; on AAK1, 0.01049.

As for `CC(=O)N1CCN(c2ccc(Nc3nccc(-c4sc(C(C)C)nc4-c4cccc(NS(=O)(=O)c5ccccc5)c4)n3)cn2)CC1` [GSK1645872A], the results for the potency estimated from few doses at ABL2 [2] and at ABL1 [3] were 166 nM and 746 nM, respectively. The CATDS at ABL2 [4] worked out at 0.06803; at ACAD11 it was 0; at ACOX1, 0; at ABL1 [5], 0.02989; at AAK1, 0.

Regarding `CC(C)c1nc(-c2cccc(NS(=O)(=O)c3ccccc3)c2)c(-c2ccnc(Nc3ccc4c(c3)CN(C)CC4)n2)s1` [GSK1649598A], the potency estimated from few doses on ABL2 [2] was 93.8 nM; at ABL1 [3] it was 368 nM. Besides, the CATDS on ABL2 [4] stood at 0.03972; at ACAD11, 0; on ACOX1 it was 0; at ABL1 [5], 0.02015; at AAK1, 0.

On to `CC(C)c1nc(-c2cccc(NS(=O)(=O)c3c(F)cccc3F)c2)c(-c2ccnc(Nc3ccc(N4CCOCC4)nc3)n2)s1` [GSK1723980B], for which the figures for the potency estimated from few doses on ABL2 [2] and on ABL1 [3] were 61.3 nM and 301 nM, respectively. For the same compound, the CATDS is 0.05939 at ABL2 [4]; 0 on ACAD11; 0 at ACOX1; 0.0244 at ABL1 [5]; 0 at AAK1.

On to `CC(C)c1nc(-c2ccc(F)c(NS(=O)(=O)c3c(F)cccc3F)c2)c(-c2ccnc(Nc3ccc(N4CCOCC4)nc3)n2)s1` [GSK1804250A], for which the potency estimated from few doses at ABL2 [2] is 126 nM; on ABL1 [3] it was 970 nM. Also, the CATDS is given as 0.1009 on ABL2 [4]; 0 on ACAD11; 0 on ACOX1; 0.03302 on ABL1 [5]; 0 at AAK1.

Turning to `CC(C)c1nc(-c2cccc(NS(=O)(=O)c3c(F)cccc3F)c2F)c(-c2ccnc(Nc3ccc(N4CCOCC4)nc3)n2)s1` [GSK2008607A], the potency estimated from few doses at ABL2 [2] was 101 nM; on ABL1 [3], 706 nM. Also, the CATDS on ABL2 [4] is recorded as 0.07581; on ACAD11, 0; at ACOX1, 0; on ABL1 [5], 0.02525; at AAK1, 0.

As for `O=C(O[C@H]1CN[C@H](C#Cc2cc3ncnc(Nc4ccc(OCc5cccc(F)c5)c(Cl)c4)c3s2)C1)N1CCOCC1` [GW869810X], the “selectivity in the Kinobeads assay (CATDSmost potent)” value in assay [1] was “very selective”.

With `COC[C@@H](C)N[C@H]1CC[C@H](Nc2cc(-c3cccc(NCC4(C#N)CCOCC4)n3)c(Cl)cn2)CC1` [NVP-2, reference compound], the “detection” value in assay [1] was “failed to reveal their targets”.

With `CN(C)C/C=C/C(=O)Nc1ccc(C(=O)N2CCC[C@@H](Nc3ncc(Cl)c(-c4c[nH]c5ccccc45)n3)C2)cc1` [THZ531, reference compound], in assay [1], the “detection” value is on record as “failed to reveal their targets”.

For `CCC(=O)Nc1cccc(Oc2nc(Nc3ccc(N4CCN(C)CC4)cc3OC)ncc2Cl)c1` [WZ4003, reference compound], the “selectivity in the Kinobeads assay (CATDSmost potent)” value in assay [1] is on record as “poor selectivity”.
